Laboratory results: the METLIN SMRT retention time set (Domingo-Almenara et al. 2019)

Experiment: gradient 5% acetonitrile 3 min, to 50% in 2 min, to 85% in 15 min, held 3 min, 100 µL/min
Conditions: column: Zorbax Extend-C18 2.1 x 50 mm; eluents: water / acetonitrile, 0.1% formic acid
Outline: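 Retention time was recorded from adduct peaks, which were picked computationally and each inspected manually. Pure standards ran in mixtures of ~100 molecules on HPLC coupled to a quadrupole time-of-flight mass spectrometer, in positive and negative ionization mode, through a Zorbax Extend-C18 column (2.1 × 50 mm, 1.8 μm) at 100 μL/min. Eluents were water and acetonitrile, each with 0.1% formic acid.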

SMILES	RP-LC retention time [s]
CCc1ccc(NC(=O)Cn2c(=O)cc(-c3nc(C)no3)c3ccccc32)cc1	930
O=C(c1ccc2c(c1)OCO2)N1CCC2(CC1)NC(=O)N(Cc1ccccc1Cl)C2=O	838
Cc1c(C(=O)N2CCCCC2)cnn1-c1ccc(-c2nc(C3CC3)no2)cn1	1010
Cc1ccc(N2N=C(C(=O)N3CCN(C(C)C)CC3)S(=O)(=O)c3cccnc32)cc1	649
COc1cc2ncnc(Nc3ccc(F)c(Cl)c3)c2cc1NC(=O)/C=C/CN1CCCCC1	704
O=C(Nc1ccc2c(c1)OCCO2)C1CCN(C(=O)c2ccccc2F)CC1	734
CC(=O)Nc1ccc(CCc2nc3ccc(C(=O)NCc4ccc(C)o4)cc3[nH]2)cc1	606
Cc1ccc2c(c1)N(CC#N)N=C(C(=O)N1CCC(C)CC1)S2(=O)=O	842
CCCNC(=O)C1CCN(c2ccc(SCC(=O)NCc3ccccc3Cl)nn2)CC1	644
Cc1ccc(NC(=O)N(C)CCc2noc(COc3ccccc3F)n2)c(C)c1	922
Cc1cccc(NC(=O)C2CCN(C(=O)c3ncn4c3COC(c3ccccc3)C4)CC2)c1 (stereo unspecified)	798
O=C(NCCOc1ccc(F)cc1)C1CCCN(c2ccc(-c3cccs3)nn2)C1 (stereo unspecified)	702
Cc1ccc(CC(=O)N2CCc3cc(-c4ccno4)ccc32)cc1	1020
CCN(C(=O)c1cc(OC)cc(OC)c1)c1nc(-c2ccccc2)cs1	1260
CCOC(=O)c1c(C)oc2nc(C)nc(N3CCc4cc(OC)c(OC)cc4C3C)c12 (stereo unspecified)	1060
CCc1ccc(C2=C(C)C(N3CCCN(C(=O)CC4CCCC4)CC3)=NS2(=O)=O)cc1	984
O=C(N[C@H]1C[C@@H]2C[C@H]1CN2C(=O)Nc1ccc(C(F)(F)F)cc1)c1cccs1	840
O=C(NCCN1CCCCC1)c1ccc2c(=O)n(-c3ccc(F)cc3)c(N3CCCC3)nc2c1	629
O=C(c1ccc(F)cc1)N(CC1CCOC1)C1CC1 (stereo unspecified)	747
O=C(CN1C(=O)CCc2cc(Br)ccc21)NCc1cccnc1	614
O=c1[nH]c2ccc(NCc3ccc(F)cc3)cc2[nH]1	580
CCCc1ccc(S(=O)(=O)N2CCC(C)(C(=O)NCc3ccc(F)cc3)CC2)cc1	1070
Cc1ccc(NS(=O)(=O)c2cc(-c3nc(C)cs3)sc2C)c(C)c1	1090
Cc1ccc2nc3sc(C(=O)Nc4cccc(C(F)(F)F)c4)cc3c(=O)n2c1	980
COc1ccc(NC(=O)N2CCCC(Cn3cnc4cccnc43)C2)cc1OC (stereo unspecified)	620

Results, then the compound that gave them:

RP-LC retention time [s]	SMILES
909	Cc1ccccc1NS(=O)(=O)c1ccc(-c2nnc(C3CCC3)o2)o1
857	CS(=O)(=O)Nc1ccc(C2(C(=O)NCc3ccc4c(c3)OCO4)CCCCC2)cc1
1100	CCCN1C(=O)COc2ccc(-c3noc(Cc4cccc(F)c4)n3)cc21
931	CC(NC(=O)c1csc(C(=O)NC2CCCC2)n1)c1ccc(F)cc1 (stereo unspecified)
1030	COc1ccccc1-c1nnc(C2CCN(S(=O)(=O)c3c(C)cc(C)cc3C)CC2)o1
604	Cc1ccc(NC(=O)c2cn3c(n2)CCCC3)cc1C
1280	CCOc1ccc(-c2cc3c(=O)n(Cc4nc(-c5cccc(Br)c5)no4)ncn3n2)cc1
597	COc1ccc(OC)c(N2CC(c3nc4ccccc4n3CCN3CCOCC3)CC2=O)c1 (stereo unspecified)
633	COCCCNC(=O)C1CCCN(c2nnc(C)c3c(C)n(-c4ccc(OC)cc4)nc23)C1 (stereo unspecified)
584	CN(C)c1ccc(CNC(=O)C2CCN(Cc3cn(C)c4ccc(Cl)cc34)CC2)cc1
696	Cc1ccc(-c2ccc(N3CCCC(C(=O)NC4CCCC4)C3)nn2)cc1 (stereo unspecified)
